Patent US10294202B2, “Pyrrolidinones as herbicides” (FMC Corporation, priority 2013, dated 2019)

How the values were obtained:
Assay in all cases: Test C pre-/postemergence herbicide test
bermudagrass = format: in vivo, Cynodon dactylon
Procedure, shortened: (§1)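 Herbicidal effect was judged by eye 13 to 15 days after treatment in the greenhouse, using a 0–100 scale against controls. Chemicals in a non-phytotoxic solvent with surfactant were sprayed onto planted loam/sand soil or onto plants 2 to 18 cm tall in a peat-based growing medium.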

cocklebur = format: in vivo, Xanthium strumarium
Procedure, shortened: as §1

cupgrass, woolly = format: in vivo, Eriochloa villosa
Description: (§2) Seeds of plant species selected from blackgrass (Alopecurus myosuroides), ryegrass, Italian (Italian ryegrass, Lolium multiflorum), wheat (winter wheat, Triticum aestivum), galium (catchweed bedstraw, Galium aparine), corn (Zea mays), crabgrass, large (large crabgrass, Digitaria sanguinalis), foxtail, giant (giant foxtail, Setaria faberii), johnsongrass (Sorghum halepense), lambsquarters (Chenopodium album), morningglory (Ipomoea coccinea), nutsedge, yellow (yellow nutsedge, Cyperus esculentus), pigweed (Amaranthus retroflexus), ragweed (common ragweed, Ambrosia elatior), soybean (Glycine max), barnyardgrass (Echinochloa crus-galli), oilseed rape (Brassica napus), waterhemp (common waterhemp, Amaranthus rudis), kochia (Kochia scoparia), oat, wild (wild oat, Avena fatua), surinam grass (Brachiaria decumbens), foxtail, green (green foxtail, Setaria viridis), goosegrass (Eleusine indica), bromegrass, downy (downy bromegrass, Bromus tectorum), nightshade (eastern black nightshade, Solanum ptycanthum), cocklebur (common cocklebur, Xanthium strumarium), cupgrass, woolly (woolly cupgrass, Eriochloa villosa), bermudagrass (Cynodon dactylon), sunflower, (common oilseed sunflower, Helianthus annuus), Russian thistle (Salsola kali) and velvetleaf (Abutilon theophrasti) were planted into a blend of loam soil and sand and treated preemergence with test chemicals formulated in a non-phytotoxic solvent mixture which included a surfactant. At the same time, plants selected from these crop and weed species and also barley (winter barley, Hordeum vulgare), […]), chickweed (common chickweed, Stellaria media), deadnettle (henbit deadnettle, Lamium amplexicaule), and canarygrass (littleseed canarygrass, Phalaris minor) were planted in pots containing Redi-Earth® planting medium (Scotts Company, 14111 Scottslawn Road, Marysville, Ohio 43041) comprising spaghnum peat moss, vermiculite, wetting agent and starter nutrients and treated with postemergence applications of test chemicals formulated in the same manner. Plants ranged in height from 2 to 18 cm (1- to 4-leaf stage) for postemergence treatments. Treated plants and controls were maintained in a greenhouse for 13 to 15 days, after which time all species were compared to controls and visually evaluated. Plant response ratings, summarized in Table C, are based on a scale of 0 to 100 where 0 is no effect and 100 is complete control. A dash (-) response means no test result.

foxtail, green = format: in vivo, Setaria viridis
Procedure, shortened: as §1

bromegrass, downy = format: in vivo, Bromus tectorum
Description: as §2

surinam grass = format: in vivo, Brachiaria decumbens; conditions: for Surinam Grass plant response rating: scale 0 to 100, 0 is no effect and 100 is complete control
Procedure, shortened: as §1

sunflower = format: in vivo, Helianthus annuus; conditions: Preemergence; for Sunflower plant response rating: 31 g ai/ha, scale 0 to 100, 0 is no effect and 100 is complete control
Procedure, shortened: as §1

goosegrass = format: in vivo, Eleusine indica
Procedure, shortened: as §1

nightshade = format: in vivo, Solanum ptycanthum; conditions: Preemergence; for Nightshade plant response rating: 31 g ai/ha, scale 0 to 100, 0 is no effect and 100 is complete control
Procedure, shortened: as §1

[1] = Postemergence, 31 g ai/ha, scale 0 (no effect) to 100 (complete control)
[2] = Postemergence, 62 g ai/ha, scale 0 to 100 (0 no effect, 100 complete control)
[3] = Postemergence, 125 g ai/ha, scale 0 to 100 (0 no effect, 100 complete control)
[4] = Postemergence, 250 g ai/ha, scale 0 to 100 (0 no effect, 100 complete control)
[5] = Preemergence, 31 g ai/ha, scale 0 to 100, 0 is no effect and 100 is complete control
[6] = Preemergence, 62 g ai/ha, scale 0 to 100
[7] = Preemergence, 125 g ai/ha, scale 0 to 100 (0 no effect, 100 complete control)
[8] = 125 g ai/ha, scale 0 to 100 (0 no effect, 100 complete control)
[9] = Preemergence, 31 g ai/ha, scale 0 to 100 (0 no effect, 100 complete control)
[10] = Preemergence, 250 g ai/ha, scale 0 to 100 (0 no effect, 100 complete control)

O=C1NCC(c2ccccc2)C1C(=O)Nc1ccccc1F (racemic) [Compound 81]
Plant response rating, Bermudagrass (bermudagrass; [1]): 0
Plant response rating, Bermudagrass (bermudagrass; [2]): 0
Plant response rating, Bermudagrass (bermudagrass; [3]): 0
Plant response rating, Bermudagrass (bermudagrass; [4]): 0
Bermudagrass plant response rating (bermudagrass; [5]): 0
Plant response rating, Bermudagrass (bermudagrass; [6]): 0
Plant response rating, Bermudagrass (bermudagrass; [7]): 0
Plant response rating (scale of 0 to 100), Bermudagrass (bermudagrass; Preemergence, 250 g ai/ha): 0
Plant response rating, Cocklebur (cocklebur; [1]): 0
Plant response rating, Cocklebur (cocklebur; [2]): 0
Plant response rating, Cocklebur (cocklebur; [3]): 0
Plant response rating, Cocklebur (cocklebur; [4]): 0
Cocklebur plant response rating (cocklebur; [5]): 0
Plant response rating, Cocklebur (cocklebur; [6]): 0
Plant response rating, Cocklebur (cocklebur; [7]): 0
Plant response rating (scale of 0 to 100), Cocklebur (cocklebur; Preemergence, 250 g ai/ha): 0
Plant response rating, Cupgrass, Woolly (cupgrass, woolly; [1]): 0
Plant response rating, Cupgrass, Woolly (cupgrass, woolly; [2]): 0
Plant response rating, Cupgrass, Woolly (cupgrass, woolly; [3]): 0
Plant response rating, Cupgrass, Woolly (cupgrass, woolly; [4]): 0
Cupgrass, Woolly plant response rating (cupgrass, woolly; [5]): 0
Plant response rating, Cupgrass, Woolly (cupgrass, woolly; [6]): 32
Plant response rating, Cupgrass, Woolly (cupgrass, woolly; [7]): 67
Plant response rating (scale of 0 to 100), Cupgrass, Woolly (cupgrass, woolly; Preemergence, 250 g ai/ha): 82
Plant response rating, Foxtail, Green (foxtail, green; [1]): 5
Plant response rating, Foxtail, Green (foxtail, green; [2]): 5
Plant response rating, Foxtail, Green (foxtail, green; [3]): 20
Plant response rating, Foxtail, Green (foxtail, green; [4]): 48
Foxtail, Green plant response rating (foxtail, green; [5]): 20
Plant response rating, Foxtail, Green (foxtail, green; [6]): 67
Plant response rating, Foxtail, Green (foxtail, green; [7]): 80
Plant response rating (scale of 0 to 100), Foxtail, Green (foxtail, green; Preemergence, 250 g ai/ha): 90
Plant response rating, Bromegrass, Downy (bromegrass, downy; [1]): 0
Plant response rating, Bromegrass, Downy (bromegrass, downy; [2]): 0
Plant response rating, Bromegrass, Downy (bromegrass, downy; [3]): 0
Plant response rating, Bromegrass, Downy (bromegrass, downy; [4]): 7
Bromegrass, Downy plant response rating (bromegrass, downy; [5]): 0
Plant response rating, Bromegrass, Downy (bromegrass, downy; [6]): 0
Plant response rating, Bromegrass, Downy (bromegrass, downy; [7]): 0
Plant response rating (scale of 0 to 100), Bromegrass, Downy (bromegrass, downy; Preemergence, 250 g ai/ha): 0
Plant response rating, Surinam Grass (surinam grass; [1]): 0
Plant response rating, Surinam Grass (surinam grass; [2]): 0
Plant response rating, Surinam Grass (surinam grass; [3]): 0
Plant response rating, Surinam Grass (surinam grass; [4]): 0
Surinam Grass plant response rating (surinam grass; Preemergence, 31 g ai/ha): 0
Plant response rating, Surinam Grass (surinam grass; [6]): 53
Plant response rating, Surinam Grass (surinam grass; [7]): 77
Plant response rating (scale of 0 to 100), Surinam Grass (surinam grass; Preemergence, 250 g ai/ha): 90
Sunflower plant response rating (sunflower): 0
Plant response rating Sunflower (sunflower; 62 g ai/ha, scale 0 to 100): 0
Plant response rating Sunflower (sunflower; [8]): 0
Plant response rating (scale of 0 to 100), Sunflower (sunflower; 250 g ai/ha): 0
Plant response rating, Goosegrass (goosegrass; [1]): 0
Plant response rating, Goosegrass (goosegrass; [2]): 0
Plant response rating, Goosegrass (goosegrass; [3]): 0
Plant response rating, Goosegrass (goosegrass; [4]): 0
Goosegrass plant response rating (goosegrass; [5]): 0
Plant response rating, Goosegrass (goosegrass; [6]): 0
Plant response rating, Goosegrass (goosegrass; [7]): 0
Plant response rating (scale of 0 to 100), Goosegrass (goosegrass; Preemergence, 250 g ai/ha): 0
Nightshade plant response rating (nightshade): 0
Plant response rating, Nightshade (nightshade; 62 g ai/ha, scale 0 to 100): 0
Plant response rating, Nightshade (nightshade; [8]): 0
Plant response rating (scale of 0 to 100), Nightshade (nightshade; 250 g ai/ha): 0

Cc1ccccc1NC(=O)C1C(=O)NCC1c1cc(F)c(F)c(F)c1 (racemic) [Compound 35]
Bermudagrass plant response rating (bermudagrass; [9]): 0
Plant response rating, Bermudagrass (bermudagrass; [6]): 0
Plant response rating, Bermudagrass (bermudagrass; [7]): 0
Plant response rating, Bermudagrass (bermudagrass; [10]): 75
Cocklebur plant response rating (cocklebur; [9]): 0
Plant response rating, Cocklebur (cocklebur; [6]): 0
Plant response rating, Cocklebur (cocklebur; [7]): 0
Plant response rating, Cocklebur (cocklebur; [10]): 0
Cupgrass, Woolly plant response rating (cupgrass, woolly; [9]): 55
Plant response rating, Cupgrass, Woolly (cupgrass, woolly; [6]): 80
Plant response rating, Cupgrass, Woolly (cupgrass, woolly; [7]): 85
Plant response rating, Cupgrass, Woolly (cupgrass, woolly; [10]): 90
Foxtail, Green plant response rating (foxtail, green; [9]): 90
Plant response rating, Foxtail, Green (foxtail, green; [6]): 98
Plant response rating, Foxtail, Green (foxtail, green; [7]): 98
Plant response rating, Foxtail, Green (foxtail, green; [10]): 98
Bromegrass, Downy plant response rating (bromegrass, downy; [9]): 0
Plant response rating, Bromegrass, Downy (bromegrass, downy; [6]): 0
Plant response rating, Bromegrass, Downy (bromegrass, downy; [7]): 5
Plant response rating, Bromegrass, Downy (bromegrass, downy; [10]): 40
Plant response rating, Surinam Grass (surinam grass; [6]): 90
Plant response rating, Surinam Grass (surinam grass; [7]): 100
Plant response rating Sunflower (sunflower; 62 g ai/ha, scale 0 to 100): 0
Plant response rating Sunflower (sunflower; [8]): 10
Goosegrass plant response rating (goosegrass; [9]): 0
Plant response rating, Goosegrass (goosegrass; [6]): 0
Plant response rating, Goosegrass (goosegrass; [7]): 5
Plant response rating, Nightshade (nightshade; 62 g ai/ha, scale 0 to 100): 0
Plant response rating, Nightshade (nightshade; [8]): 0

O=C1NCC(c2cccc(OC(F)(F)F)c2)C1C(=O)Nc1cccc(F)c1F (centres unmarked) [Compound 68]
Bermudagrass plant response rating (bermudagrass; [5]): 30
Plant response rating, Bermudagrass (bermudagrass; [6]): 50
Plant response rating, Bermudagrass (bermudagrass; [7]): 85
Plant response rating, Bermudagrass (bermudagrass; [10]): 85
Cocklebur plant response rating (cocklebur; [5]): 15
Cupgrass, Woolly plant response rating (cupgrass, woolly; [5]): 75
Plant response rating, Cupgrass, Woolly (cupgrass, woolly; [6]): 75
Plant response rating, Cupgrass, Woolly (cupgrass, woolly; [7]): 85
Plant response rating, Cupgrass, Woolly (cupgrass, woolly; [10]): 90
Foxtail, Green plant response rating (foxtail, green; [5]): 90
Plant response rating, Foxtail, Green (foxtail, green; [6]): 90
Plant response rating, Foxtail, Green (foxtail, green; [7]): 95
Plant response rating, Foxtail, Green (foxtail, green; [10]): 95
Bromegrass, Downy plant response rating (bromegrass, downy; [5]): 0
Plant response rating, Bromegrass, Downy (bromegrass, downy; [6]): 0
Plant response rating, Bromegrass, Downy (bromegrass, downy; [7]): 0
Plant response rating, Bromegrass, Downy (bromegrass, downy; [10]): 0
Surinam Grass plant response rating (surinam grass; Preemergence, 31 g ai/ha): 40
Plant response rating, Surinam Grass (surinam grass; [6]): 75
Plant response rating, Surinam Grass (surinam grass; [7]): 75
Sunflower plant response rating (sunflower): 0
Plant response rating Sunflower (sunflower; 62 g ai/ha, scale 0 to 100): 0
Plant response rating Sunflower (sunflower; [8]): 10
Goosegrass plant response rating (goosegrass; [5]): 55
Plant response rating, Goosegrass (goosegrass; [6]): 75
Plant response rating, Goosegrass (goosegrass; [7]): 80
Nightshade plant response rating (nightshade): 10
Plant response rating, Nightshade (nightshade; 62 g ai/ha, scale 0 to 100): 50
Plant response rating, Nightshade (nightshade; [8]): 55
